For assay [1], the system named is SCC-S, H358 and H292 erlotinib-sensitive epithelial cell lines. The assay is described as follows: TGFβ-induced EMT, immunoblot of EMT markers and kinases. In kind it is cell-based, human. How it is done: FIGS. 2A-2F depict that increased production of TGFβ induces an EMT-associated kinase switch which promotes erlotinib-resistance of tumor cells. A. Protein lysates were extracted from indicated cell lines Immunoblot analysis was performed with antibodies against E-cadherin, vimentin and β-actin. B. Tumor cell supernatants of 25 cancer cell lines shown in A were collected and differential levels of TGFβ production were analyzed by ELISA. C. […] Cells were collected at different time points and Immunoblot analysis was performed with indicated antibodies. […] Values were set at 100% for untreated controls. […]
Antibodies and immunoblot analysis. […] Protein concentrations were determined by the BCA method and lysates diluted in SDS sample buffer (Bio-Rad, Hercules, Calif.) prior to SDS-PAGE. […] ImageJ (ver 1.46) software was used to quantify immunoblot signals on exposed films.
Increased production of TGFβ induces an EMT-associated kinase switch that promotes erlotinib-resistance of tumor cells. […] To test whether TGFβ can promote this kinase switch, levels of phospho IGFR, PDGFR, FGFR and FAK kinases were assessed in response to treatment of erlotinib-sensitive cells (H358, H292 and SCC-S) with TGFβ1 for 21 days.
Background: Immunoblotting shows a protein as a band on a membrane.

The test system of the next assay is miR200c and miR205. Put plainly: Quantitative real-time PCR for miR200c and miR205 after TGFβ blockade. In kind it is cell-based, human. To be noted: H1703 and JHU028 cells, TGFβ (2 ng/ml) plus SB-431542 (10 μM) for 7 days. The method, then: (§1) Two erlotinib-resistant cell lines (JHU028 and H1703) were treated with TGFβ (2 ng/ml) alone or in combination with SB-431542 (10 μM) for 7 days. A. Cell lysates were collected and subjected to immunoblot analysis with indicated antibodies. B. Levels of miR200c and miR205 were measured and relative expression is presented as ΔΔCt. C. […] Cell viability was assayed and values were set at 100% for untreated controls.
(§2) Quantitative real-time PCR for miRNA. RNA from cultured cells was extracted using the mirVana™ Kit (Ambion, Austin, Tex.). Total RNA from fresh frozen tumors was isolated using the Trizol reagent (Invitrogen, Carlsbad, Calif.). Specific quantitative real-time PCR was carried out using TaqMan MicroRNA Assays for miR200a, miR200b, miR200c, miR205 and control RNU6b (Applied Biosystems, Foster City, Calif.) on a 7900HT detector (Applied Biosystems, Foster City, Calif.).
(§3) Autocrine or paracrine TGF3 signaling is required for the maintenance of the mesenchymal state. Blockage of this signaling can inhibit or reverse EMT by upregulating miR200 and subsequently downregulating ZEB1/2 (28-31). As a corollary to this observation, over-expression of miR-200c restores the sensitivity of resistant NSCLC cells to the anti-EGFR antibody cetuximab. […]
(Real-time PCR tracks product formation cycle by cycle.)

The subject of assay [2] is JHU028 and H1703 erlotinib-resistant cell lines. Put plainly: Cell viability assay, erlotinib sensitivity after TGFβ blockade. In kind it is cell-based, human. The note with it: TGFβ plus inhibitor (SB-431542 10 μM or TGFβ RII/Fc 20 ng/ml) 7 days, then 1 μM erlotinib 72 hours. How it is done: as §1
Cell viability assay. Relative cell viability was determined using an Alamar Blue assay as outlined by the manufacturer (AbDSerotec, Raleigh, N.C.). New media containing 1/10 volume of Alamar Blue reagent was added to the wells and cells were incubated at 37° C. for 1 hour. Fluorescence (545 nm excitation, 590 nm emission wavelengths) was measured using a SpectraMax Plus384 fluorometer (Sunnyvale, Calif.). Cell viability was calculated relative to an untreated culture of cells incubated in parallel.
as §3

For assay [3], the system named is AKT phosphorylation and Mig6 expression. Put plainly: Immunoblot analysis of AKT phosphorylation and Mig6 after TGFβ blockade. In kind it is cell-based, human. To be noted: H1703 and JHU028 cells, TGFβ (2 ng/ml) plus SB-431542 (10 μM) for 7 days. The method, then: as §1
(§4) Antibodies and immunoblot analysis. Pelleted cells were lysed on ice by adding RIPA lysis buffer (Thermo Scientific, Rockford, Ill.) supplemented with protease and phosphatase inhibitors (Roche, Basel, Switzerland). Protein concentrations were determined by the BCA method and lysates diluted in SDS sample buffer (Bio-Rad, Hercules, Calif.) prior to SDS-PAGE. Anti-Mig6 antibody was a gift from Dr. Ferby (Nature medicine. 2006; 12:568-73). β-actin was obtained from Abcam (Cambridge, Mass.). All other antibodies were obtained from Cell Signaling (Beverly, Mass.). Secondary horseradish peroxidase (HRP)-conjugated antibodies were from KPL (Gaithersburg, Md.) and signals developed using West-Pico chemiluminescence substrate (Thermo Scientific). ImageJ (ver 1.46) software was used to quantify immunoblot signals on exposed films.
Autocrine or paracrine TGF3 signaling is required for the maintenance of the mesenchymal state. […]

In assay [4] the test system is miR200 family members (200a, 200b, 200c and 205). Put plainly: Real-time PCR of miR200 family after exposure to TGFβ. In kind it is cell-based, human. The note with it: SCC-S, H358 and H292 cells, exposure for 21 days. The method, then: RNA was extracted and expression levels of miR200a, miR200b, miR200c and miR205 were quantified by real-time PCR. B. RNA was extracted from four sensitive/resistant cancer cell lines pairs. Levels of miR200a, miR200b, miR200c and miR205 were measured and relative expression is presented as average fold change of each miRNA in erlotinib-sensitive cell lines relatively to that in resistant cells, which was given a value 1. […] Relative quantification of miRNA expression was performed by using RNU6b as an internal control. The results are presented as expression average of each miRNA in erlotinib-sensitive cell lines relatively to that in erlotinib-resistant cells.
as §2
We next examined changes in miR200 levels in erlotinib-sensitive (SCC-S) and erlotinib-resistant (SCC-R) isogenic H&N cell lines.

The test system of another assay is Mig6. Put plainly: Immunoblot analysis of Mig6 after inhibitor exposure in parental and TGFβ-induced H358 cells. In kind it is cell-based, human. The note with it: 24 hours exposure. The method, then:
A. Protein lysates were extracted from indicated cell lines Immunoblot analysis was performed with antibodies against E-cadherin, vimentin and β-actin. […] C. […] Cells were collected at different time points and Immunoblot analysis was performed with indicated antibodies. […] Values were set at 100% for untreated controls. […] F. Protein lysates were extracted from H358 cells treated with TGFβ1 or control vehicle for 21 days and immunoblot analysis was performed with antibodies against indicated RTKs. β-actin was used as a loading control.
as §4, with “films. […]” for “films.”

Assay [5] relates to directly xenografted human NSCLC tumors. The assay is described as follows: Erlotinib response of directly xenografted primary human tumors in nude mice. To be noted: lung tumors CTG-0167, CTG-0502, CTG-0199 and CTG-0157 with low EGFR and Mig6 expression, Erlotinib 35 mg/kg. In kind it is in vivo. An excerpt:
Xenograft generation. […] The animals were maintained in accordance to guidelines of the American Association of Laboratory Animal Care and the research protocol was approved by the Johns Hopkins University Animal Use and Care Committee.
We obtained 18 human NSCLCs, and 27 pancreatic tumors that were directly xenografted into nude mice. No erlotinib-sensitizing mutations in EGFR were detected in any of these tumors and there was no correlation of KRAS mutation with erlotinib response. For all models tested, miR200 levels were measured by quantitative RT-PCR and mRNA levels of Mig6 and EGFR were determined by Affymetrix expression array. […] Supporting this observation, an inverse correlation between miR200c and Mig6 expression levels was noted across the pancreatic models (data not shown). […] Unlike the limited predictive ability of the Mig6/EGFR ratio in such tumors with low EGFR expression, the Mig6(mRNA)/miR200c ratio was still able to correctly identify three out of four of these lung tumors with low EGFR mRNA as erlotinib-resistant. Therefore, the ratio of Mig6 to miR200 was a reliable predictive biomarker of the primary tumors response to EGFR TKIs regardless of their EGFR status.
On the technique in general: In xenograft studies the graft and the host belong to different species.

The values below come from patent publication US10801071B2, “TGF(β)-MIR200-MIG6 pathway and its use in the treatment of cancer as an indicator of resistance to EGFR inhibitors” (THE JOHNS HOPKINS UNIVERSITY, priority 2014, dated 2020).

On to “TGFβ1: TGFβ isoform used to treat erlotinib-sensitive cells for 21 days”, for which, in assay [1] (H358, H292 and SCC-S cells, TGFβ1 for 21 days, compared to untreated counterparts), the “levels of phospho IGFR, PDGFR, FGFR and FAK kinases” value is given as “significantly greater activity”.
As to `NC(=O)c1ccc(-c2nc(-c3ccc4c(c3)OCO4)c(-c3ccccn3)[nH]2)cc1` [SB-431542], in the assay on miR200c and miR205, the miR200c levels entry was “significant increase” and the miR205 levels entry is “significant increase”. In addition, the “sensitivity of tumor cells to erlotinib” value in assay [2] is recorded as “increased the sensitivity of tumor cells to erlotinib”. In addition, in assay [3], the AKT phosphorylation result is on record as “downregulation” and the Mig6 expression result is “downregulation”.
For TGFβ, the “EMT markers (loss of E-cadherin and upregulation of vimentin)” value in assay [1] (time course 1-21 days, TGF-β1 or TGF-β3, SCC-S, H358 and H292 cells) is on record as “complete EMT by day 14”. Moreover, the “expression of the miR200 family members (200a, 200b, 200c and 205)” value in assay [4] was “significantly reduced”.
As for `N#CC(=C(/N)Sc1ccccc1N)/C(C#N)=C(\N)Sc1ccccc1N` [U0126], the “basal expression of Mig6” value with Mig6 is listed as “reduced basal expression of Mig6”.
For `C#Cc1cccc(Nc2ncnc3cc(OCCOC)c(OCCOC)cc23)c1` [erlotinib], the “basal expression of Mig6” value in the assay on Mig6 is “reduced basal expression of Mig6”. Also, the “erlotinib response of lung tumor xenografts” value in assay [5] is “erlotinib-resistant”.
